Results as given in PubChem BioAssay (NCI).
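Cultured in 96-well plates, cells were exposed to test compound for 48 hours across five concentrations. The concentration for 50% growth inhibition is given as GI50. TGI: total growth inhibition.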

Key:
Experiment in all cases: NCI tumour cell line growth inhibition, 48 h
DLD-1 colon = test system: DLD-1 colon
EKVX NSCLC = test system: EKVX NSCLC
OVCAR-4 ovarian = test system: OVCAR-4 ovarian
CCRF-CEM leukemia = test system: CCRF-CEM leukemia
HL-60(TB) leukemia = test system: HL-60(TB) leukemia
OVCAR-8 ovarian = test system: OVCAR-8 ovarian
KM20L2 colon = test system: KM20L2 colon
COLO 205 colon = test system: COLO 205 colon
RPMI-8226 leukemia = test system: RPMI-8226 leukemia
NCI-H460 lung = test system: NCI-H460 lung
HCT-116 colon = test system: HCT-116 colon
P388/ADR leukemia = test system: P388/ADR leukemia
SK-MEL-2 melanoma = test system: SK-MEL-2 melanoma
NCI-H23 lung = test system: NCI-H23 lung
KM12 colon = test system: KM12 colon
SF-295 CNS = test system: SF-295 CNS
SW-620 colon = test system: SW-620 colon
MALME-3M melanoma = test system: MALME-3M melanoma
HCT-15 colon = test system: HCT-15 colon
SK-MEL-5 melanoma = test system: SK-MEL-5 melanoma
RXF 393 renal = test system: RXF 393 renal
SNB-75 CNS = test system: SNB-75 CNS
OVCAR-3 ovarian = test system: OVCAR-3 ovarian
K-562 leukemia = test system: K-562 leukemia
HCC-2998 colon = test system: HCC-2998 colon
HOP-62 NSCLC = test system: HOP-62 NSCLC
UO-31 renal = test system: UO-31 renal
SN12C renal = test system: SN12C renal
IGROV1 ovarian = test system: IGROV1 ovarian
SNB-78 CNS = test system: SNB-78 CNS
SK-MEL-28 melanoma = test system: SK-MEL-28 melanoma
U251 CNS = test system: U251 CNS
NCI/ADR-RES ovarian = test system: NCI/ADR-RES ovarian
DMS 114 small cell lung = test system: DMS 114 small cell lung
P388 leukemia = test system: P388 leukemia
UACC-62 melanoma = test system: UACC-62 melanoma
SF-539 CNS = test system: SF-539 CNS
SNB-19 CNS = test system: SNB-19 CNS
SN12K1 renal = test system: SN12K1 renal
NCI-H226 lung = test system: NCI-H226 lung
HOP-92 NSCLC = test system: HOP-92 NSCLC
M19-MEL melanoma = test system: M19-MEL melanoma
LOX IMVI melanoma = test system: LOX IMVI melanoma
MCF7 breast = test system: MCF7 breast
NCI-H522 lung = test system: NCI-H522 lung
UACC-257 melanoma = test system: UACC-257 melanoma
A498 renal = test system: A498 renal
OVCAR-5 ovarian = test system: OVCAR-5 ovarian
SF-268 CNS = test system: SF-268 CNS
CAKI-1 renal = test system: CAKI-1 renal
HT29 colon = test system: HT29 colon
MOLT-4 leukemia = test system: MOLT-4 leukemia
HOP-18 NSCLC = test system: HOP-18 NSCLC
SK-OV-3 ovarian = test system: SK-OV-3 ovarian
A549 NSCLC = test system: A549 NSCLC
DMS 273 small cell lung = test system: DMS 273 small cell lung

SMILES: COC(=O)C1C(O)C(C)C(O)C(C)(O)/C=C/C=C(C)C(=O)Nc2c(C)c(OC(C)=O)c3c(c2O)C(=O)C(C)=C2OCOC(=C23)C(C)=CC(C)(O)C(O)C(C)C1OC(C)=O (stereo not drawn)
- TGI (DLD-1 colon): 43.3 µM
- TGI (EKVX NSCLC): 67.8 µM
- TGI (OVCAR-4 ovarian): > 100 µM
- GI50 (CCRF-CEM leukemia): 28.1 µM
- TGI (CCRF-CEM leukemia): 55.8 µM
- TGI (HL-60(TB) leukemia): 49.8 µM
- GI50 (OVCAR-8 ovarian): 42.9 µM
- TGI (OVCAR-8 ovarian): 92.1 µM
- TGI (KM20L2 colon): > 88.6 µM
- TGI (COLO 205 colon): 39.3 µM
- GI50 (RPMI-8226 leukemia): 27.1 µM
- TGI (RPMI-8226 leukemia): 54.9 µM
- GI50 (NCI-H460 lung): 19.9 µM
- TGI (NCI-H460 lung): 38.6 µM
- GI50 (HCT-116 colon): 18.1 µM
- TGI (HCT-116 colon): 34.5 µM
- TGI (P388/ADR leukemia): > 83.1 µM
- TGI (SK-MEL-2 melanoma): 39.7 µM
- TGI (NCI-H23 lung): 52.7 µM
- GI50 (KM12 colon): 19.2 µM
- TGI (KM12 colon): 35.2 µM
- TGI (SF-295 CNS): > 100 µM
- GI50 (SW-620 colon): 31.6 µM
- TGI (SW-620 colon): 63.3 µM
- GI50 (MALME-3M melanoma): 22.6 µM
- TGI (MALME-3M melanoma): 43.8 µM
- TGI (HCT-15 colon): 69.6 µM
- TGI (SK-MEL-5 melanoma): > 78.5 µM
- TGI (RXF 393 renal): 33.4 µM
- TGI (SNB-75 CNS): > 63.1 µM
- GI50 (OVCAR-3 ovarian): 22.4 µM
- TGI (OVCAR-3 ovarian): 63.1 µM
- GI50 (K-562 leukemia): 30.7 µM
- TGI (K-562 leukemia): 60.5 µM
- TGI (HCC-2998 colon): 85.5 µM
- TGI (HOP-62 NSCLC): > 100 µM
- TGI (UO-31 renal): > 100 µM
- TGI (SN12C renal): 47.9 µM
- TGI (IGROV1 ovarian): 80.5 µM
- GI50 (SNB-78 CNS): 37.9 µM
- TGI (SNB-78 CNS): 91.2 µM
- GI50 (SK-MEL-28 melanoma): 33.4 µM
- TGI (SK-MEL-28 melanoma): 59.7 µM
- TGI (U251 CNS): > 100 µM
- TGI (NCI/ADR-RES ovarian): > 100 µM
- TGI (DMS 114 small cell lung): 25.4 µM
- TGI (P388 leukemia): 52.2 µM
- TGI (UACC-62 melanoma): 47.7 µM
- TGI (SF-539 CNS): 76.4 µM
- TGI (SNB-19 CNS): > 100 µM
- TGI (SN12K1 renal): 60.8 µM
- GI50 (NCI-H226 lung): 50.7 µM
- TGI (NCI-H226 lung): > 100 µM
- GI50 (HOP-92 NSCLC): 15.9 µM
- TGI (HOP-92 NSCLC): 35.1 µM
- TGI (M19-MEL melanoma): 31.8 µM
- TGI (LOX IMVI melanoma): 41.2 µM
- TGI (MCF7 breast): 34.5 µM
- TGI (NCI-H522 lung): 56 µM
- GI50 (UACC-257 melanoma): 20.1 µM
- TGI (UACC-257 melanoma): 44.8 µM
- TGI (A498 renal): > 56.2 µM
- TGI (OVCAR-5 ovarian): > 100 µM
- GI50 (SF-268 CNS): 39.9 µM
- TGI (SF-268 CNS): 75.8 µM
- GI50 (CAKI-1 renal): 37.1 µM
- TGI (CAKI-1 renal): 86.9 µM
- TGI (HT29 colon): > 92.7 µM
- TGI (MOLT-4 leukemia): 54.8 µM
- TGI (HOP-18 NSCLC): > 100 µM
- TGI (SK-OV-3 ovarian): > 100 µM
- TGI (A549 NSCLC): > 100 µM
- TGI (DMS 273 small cell lung): > 100 µM
